Data published in PubChem BioAssay (NCI).
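Values below derive from 48-hour exposures of cells grown in 96-well plates, with endpoints linearly interpolated between the two concentrations bracketing the appropriate inhibition level. TGI: concentration producing complete growth inhibition.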

What was measured:
Test in all cases: growth of human tumour cells (NCI), 48 h
786-0 renal = system: 786-0 renal
A498 renal = system: A498 renal
A549 NSCLC = system: A549 NSCLC
ACHN renal = system: ACHN renal
BT-549 breast = system: BT-549 breast
CAKI-1 renal = system: CAKI-1 renal
CCRF-CEM leukemia = system: CCRF-CEM leukemia
COLO 205 colon = system: COLO 205 colon
DU-145 prostate = system: DU-145 prostate
EKVX NSCLC = system: EKVX NSCLC
HCT-116 colon = system: HCT-116 colon
HL-60(TB) leukemia = system: HL-60(TB) leukemia
HOP-62 NSCLC = system: HOP-62 NSCLC
HOP-92 NSCLC = system: HOP-92 NSCLC
HS 578T breast = system: HS 578T breast
HT29 colon = system: HT29 colon
IGROV1 ovarian = system: IGROV1 ovarian
K-562 leukemia = system: K-562 leukemia
KM12 colon = system: KM12 colon
LOX IMVI melanoma = system: LOX IMVI melanoma
MALME-3M melanoma = system: MALME-3M melanoma
MCF7 breast = system: MCF7 breast
MDA-MB-231 breast = system: MDA-MB-231 breast
MDA-MB-435 = system: MDA-MB-435
MDA-N = system: MDA-N
MOLT-4 leukemia = system: MOLT-4 leukemia
NCI-H226 lung = system: NCI-H226 lung
NCI-H23 lung = system: NCI-H23 lung
NCI-H522 lung = system: NCI-H522 lung
NCI/ADR-RES ovarian = system: NCI/ADR-RES ovarian
OVCAR-3 ovarian = system: OVCAR-3 ovarian
OVCAR-4 ovarian = system: OVCAR-4 ovarian
OVCAR-8 ovarian = system: OVCAR-8 ovarian
RPMI-8226 leukemia = system: RPMI-8226 leukemia
SF-268 CNS = system: SF-268 CNS
SF-295 CNS = system: SF-295 CNS
SF-539 CNS = system: SF-539 CNS
SK-MEL-28 melanoma = system: SK-MEL-28 melanoma
SK-MEL-5 melanoma = system: SK-MEL-5 melanoma
SK-OV-3 ovarian = system: SK-OV-3 ovarian
SN12C renal = system: SN12C renal
SNB-19 CNS = system: SNB-19 CNS
SR leukemia = system: SR leukemia
SW-620 colon = system: SW-620 colon
T-47D breast = system: T-47D breast
TK-10 renal = system: TK-10 renal
U251 CNS = system: U251 CNS
UACC-257 melanoma = system: UACC-257 melanoma
UACC-62 melanoma = system: UACC-62 melanoma
UO-31 renal = system: UO-31 renal

Measured: TGI

O=c1[nH]nc(Cc2ccccc2)n1O
> 100 µM: all assays above
